Measured values published in patent publication US20240327412A1, “FACTOR XIIA INHIBITORS” (KALVISTA PHARMACEUTICALS LIMITED, priority 2021, published 2024).

Biological target: T1, Human Factor XIIa (Homo sapiens, UniProt P00748)
T1 construct: Proteolytic cleavage of FXII to heavy and light chains of FXIIa dramatically increases catalytic activity; purchased Enzyme Research Laboratories
T1 sequence (P00748 373-615 limits assumed): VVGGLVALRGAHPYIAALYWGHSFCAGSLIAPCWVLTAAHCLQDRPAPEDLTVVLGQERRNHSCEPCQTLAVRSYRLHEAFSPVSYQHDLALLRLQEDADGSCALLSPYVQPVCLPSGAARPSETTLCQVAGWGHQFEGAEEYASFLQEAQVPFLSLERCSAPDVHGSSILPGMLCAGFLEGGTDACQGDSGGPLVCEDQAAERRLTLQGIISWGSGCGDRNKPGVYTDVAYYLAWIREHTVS
T1 sequence (P00748 20-372 partner limits assumed): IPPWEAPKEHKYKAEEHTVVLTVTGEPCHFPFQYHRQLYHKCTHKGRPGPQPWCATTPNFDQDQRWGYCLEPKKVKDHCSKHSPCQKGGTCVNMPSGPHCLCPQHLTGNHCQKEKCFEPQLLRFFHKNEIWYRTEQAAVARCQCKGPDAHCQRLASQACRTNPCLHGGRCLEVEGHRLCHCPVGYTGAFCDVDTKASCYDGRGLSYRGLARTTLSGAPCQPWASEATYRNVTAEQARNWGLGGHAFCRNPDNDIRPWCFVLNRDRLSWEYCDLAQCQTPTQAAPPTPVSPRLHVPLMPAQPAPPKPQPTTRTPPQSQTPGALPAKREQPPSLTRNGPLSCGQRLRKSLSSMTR
Assay: Determination of FXIIa inhibition (fluorogenic substrate H-DPro-Phe-Arg-AFC, IC50 assay)
Type: biochemical
Details: substrate at Km concentration, 25° C.; category scale; read-out: Human FXII IC50 (nm)
Description: In vitro inhibition of Factor XIIa was determined using an IC50 assay based on standard literature methods (see e.g Baeriswyl et al., ACS Chem. Biol., 2015, 10 (8) 1861; Bouckaert et al., European Journal of Medicinal Chemistry 110 (2016) 181). Human Factor XIIa (Enzyme Research Laboratories) was incubated at 25° C. with the fluorogenic substrate H-DPro-Phe-Arg-AFC (Peptide Protein Science) and various concentrations of the test compound. Protease activity was measured by monitoring the accumulation of liberated fluorescence from the substrate over 5 min at 25° C. The linear rate of fluorescence increase per minute was expressed as percentage (%) activity. The Km for the cleavage of the substrate by FXIIa was determined by standard transformation of the Michaelis-Menten equation. The compound inhibitor assays were performed at substrate Km concentration. IC50 values were calculated as the concentration of inhibitor giving 50% inhibition (IC50) of the uninhibited enzyme activity (100%).

| Structure (SMILES) | IC50 [nM] |
| --- | --- |
| Nc1nccc2c(NCC34CC(COc5ccc6c(c5)C(=O)NC6=O)(CO3)C4)cccc12 [Example 6636, 5-((1-(((1-aminoisoquinolin-5-yl)amino)methyl)-2-oxabicyclo[2.1.1]hexan-4-yl)methoxy)isoindoline-1,3-dione] | 3000 to 10000 |
| Cc1ccnc(OCC23CCOC(CNc4cccc5c(N)nccc45)(C2)C3)c1 [Example 10955, N5-((5-(((4-methylpyridin-2-yl)oxy)methyl)-2-oxabicyclo[3.1.1]heptan-1-yl)methyl)isoquinoline-1,5-diamine] | 1000 to 3000 |
| Cc1cc(OCC23CCOC(CNc4cccc5c(N)nccc45)(C2)C3)ncn1 [Example 10971, N5-((5-(((6-methylpyrimidin-4-yl)oxy)methyl)-2-oxabicyclo[3.1.1]heptan-1-yl)methyl)isoquinoline-1,5-diamine] | 300 to 1000 |
| COc1cc(OCC23CCOC(CNc4cccc5c(N)nccc45)(C2)C3)ccn1 [Example 10944, N5-((5-(((2-methoxypyridin-4-yl)oxy)methyl)-2-oxabicyclo[3.1.1]heptan-1-yl)methyl)isoquinoline-1,5-diamine] | 1000 to 3000 |
| Nc1nccc2c(NCC34CC(COc5ccc6c(c5)CNC6=O)(CCO3)C4)cccc12 [Example 10931, 5-((1-(((1-aminoisoquinolin-5-yl)amino)methyl)-2-oxabicyclo[3.1.1]heptan-5-yl)methoxy)isoindolin-1-one] | 10 to 100 |
| Cn1c(C(F)(F)F)cc(OCC23CCOC(CNc4cccc5c(N)nccc45)(C2)C3)cc1=O [Example 10951, 4-((1-(((1-aminoisoquinolin-5-yl)amino)methyl)-2-oxabicyclo[3.1.1]heptan-5-yl)methoxy)-1-methyl-6-(trifluoromethyl)pyridin-2(1H)-one] | 300 to 1000 |
| Nc1nccc2c(NCC34CC(COc5ccc6c(c5)CCNC6=O)(CO3)C4)cccc12 [Example 6637, 6-((1-(((1-aminoisoquinolin-5-yl)amino)methyl)-2-oxabicyclo[2.1.1]hexan-4-yl)methoxy)-3,4-dihydroisoquinolin-1(2H)-one] | 100 to 300 |
| CC(C)c1cc(OCC23CCOC(CNc4cccc5c(N)nccc45)(C2)C3)cc(=O)n1C [Example 10949, 4-((1-(((1-aminoisoquinolin-5-yl)amino)methyl)-2-oxabicyclo[3.1.1]heptan-5-yl)methoxy)-6-isopropyl-1-methylpyridin-2(1H)-one] | 300 to 1000 |
| Nc1nccc2c(NCC34CC(COc5ccon5)(CCO3)C4)cccc12 [Example 10936, N5-((5-((isoxazol-3-yloxy)methyl)-2-oxabicyclo[3.1.1]heptan-1-yl)methyl)isoquinoline-1,5-diamine] | 3000 to 10000 |
| c1cc2cc(NCC34CC(COc5ccn6ccnc6c5)(CCO3)C4)ccc2cn1 [Example 10958, N-((5-((imidazo[1,2-a]pyridin-7-yloxy)methyl)-2-oxabicyclo[3.1.1]heptan-1-yl)methyl)isoquinolin-6-amine] | 10000 to 40000 |
| Nc1nccc2c(NCC34CC(CN5CCCC5=O)(CO3)C4)cccc12 [Example 6649, 1-((1-(((1-aminoisoquinolin-5-yl)amino)methyl)-2-oxabicyclo[2.1.1]hexan-4-yl)methyl)pyrrolidin-2-one] | 10000 to 40000 |
| CC(C)c1cc(OCC23COC(CNc4cccc5c(N)nccc45)(C2)C3)cn2ccnc12 [Example 6641, N5-((4-(((8-isopropylimidazo[1,2-a]pyridin-6-yl)oxy)methyl)-2-oxabicyclo[2.1.1]hexan-1-yl)methyl)isoquinoline-1,5-diamine] | 100 to 300 |
| Nc1nccc2c(NCC34CC(COc5cccnc5)(CCO3)C4)cccc12 [Example 10968, N5-((5-((pyridin-3-yloxy)methyl)-2-oxabicyclo[3.1.1]heptan-1-yl)methyl)isoquinoline-1,5-diamine] | 3000 to 10000 |
| Nc1nccc2c(NCC34CC(COc5ccc6ncc(C7CC7)n6c5)(CO3)C4)cccc12 [Example 6639, N5-((4-(((3-cyclopropylimidazo[1,2-a]pyridin-6-yl)oxy)methyl)-2-oxabicyclo[2.1.1]hexan-1-yl)methyl)isoquinoline-1,5-diamine] | 10 to 100 |

Further lines, results first:

| IC50 [nM] | Structure (SMILES) |
| --- | --- |
| 100 to 300 | Cn1ccc(OCC23CN(C(=O)OC(C)(C)C)C(CNc4cccc5c(N)nccc45)(C2)C3)cc1=O [Example 12027, tert-butyl 1-(((1-aminoisoquinolin-5-yl)amino)methyl)-4-(((1-methyl-2-oxo-1,2-dihydropyridin-4-yl)oxy)methyl)-2-azabicyclo[2.1.1]hexane-2-carboxylate] |
| 10000 to 40000 | Cn1ccc(OCC23CN(C(=O)OC(C)(C)C)C(CNc4ccc5cnccc5c4)(C2)C3)cc1=O [Example 12045, tert-butyl 1-((isoquinolin-6-ylamino)methyl)-4-(((1-methyl-2-oxo-1,2-dihydropyridin-4-yl)oxy)methyl)-2-azabicyclo[2.1.1]hexane-2-carboxylate] |
| 10 to 100 | Cn1ccc(OCC23CN(C(=O)CCc4cccc(OC(F)F)c4)C(CNc4cccc5c(N)nccc45)(C2)C3)cc1=O [Example 12056, 4-((1-(((1-aminoisoquinolin-5-yl)amino)methyl)-2-(3-(3-(difluoromethoxy)phenyl)propanoyl)-2-azabicyclo[2.1.1]hexan-4-yl)methoxy)-1-methylpyridin-2(1H)-one] |
| 10 to 100 | Cn1ccc(OCC23CN(C(=O)CCc4cccc5ncccc45)C(CNc4cccc5c(N)nccc45)(C2)C3)cc1=O [Example 12052, 4-((1-(((1-aminoisoquinolin-5-yl)amino)methyl)-2-(3-(quinolin-5-yl)propanoyl)-2-azabicyclo[2.1.1]hexan-4-yl)methoxy)-1-methylpyridin-2(1H)-one] |
| 10 to 100 | Cn1ccc(OCC23CN(C(=O)CCc4cccc(C(=O)O)c4)C(CNc4cccc5c(N)nccc45)(C2)C3)cc1=O [Example 12051, 3-(3-(1-(((1-aminoisoquinolin-5-yl)amino)methyl)-4-(((1-methyl-2-oxo-1,2-dihydropyridin-4-yl)oxy)methyl)-2-azabicyclo[2.1.1]hexan-2-yl)-3-oxopropyl)benzoic acid] |
| 300 to 1000 | Cn1ccc(OCC23CC(CNc4cccc5c(N)nccc45)(CN2C(=O)CCc2ccccn2)C3)cc1=O [Example 13016, 4-((4-(((1-aminoisoquinolin-5-yl)amino)methyl)-2-(3-(pyridin-2-yl)propanoyl)-2-azabicyclo[2.1.1]hexan-1-yl)methoxy)-1-methylpyridin-2(1H)-one] |
| 10 to 100 | Cn1ccc(OCC23CC(CNc4cccc5c(N)nccc45)(CN2C(=O)OCc2cccnc2)C3)cc1=O [Example 13009, Pyridin-3-ylmethyl4-(((1-aminoisoquinolin-5-yl)amino)methyl)-1-(((1-methyl-2-oxo-1,2-dihydropyridin-4-yl)oxy)methyl)-2-azabicyclo[2.1.1]hexane-2-carboxylate] |
| 300 to 1000 | COC(=O)N1CC2(COc3ccn(C)c(=O)c3)CC1(CNc1ccc3c(N)nccc3c1)C2 [Example 12013, methyl 1-(((1-aminoisoquinolin-6-yl)amino)methyl)-4-(((1-methyl-2-oxo-1,2-dihydropyridin-4-yl)oxy)methyl)-2-azabicyclo[2.1.1]hexane-2-carboxylate] |
| 10 to 100 | Cn1ccc(OCC23CN(C(=O)CCc4cccc(Cl)c4)C(CNc4cccc5c(N)nccc45)(C2)C3)cc1=O [Example 12049, 4-((1-(((1-aminoisoquinolin-5-yl)amino)methyl)-2-(3-(3-chlorophenyl)propanoyl)-2-azabicyclo[2.1.1]hexan-4-yl)methoxy)-1-methylpyridin-2(1H)-one] |
| 10 to 100 | Cn1ccc(OCC23CN(C(=O)CCc4cccc(Br)c4)C(CNc4cccc5c(N)nccc45)(C2)C3)cc1=O [Example 12053, 4-((1-(((1-aminoisoquinolin-5-yl)amino)methyl)-2-(3-(3-bromophenyl)propanoyl)-2-azabicyclo[2.1.1]hexan-4-yl)methoxy)-1-methylpyridin-2(1H)-one] |
| 10 to 100 | Cn1ccc(OCC23CC(CNc4cccc5c(N)nccc45)(CN2C(=O)OCc2ccccc2Cl)C3)cc1=O [Example 13020, 2-chlorobenzyl 4-(((1-aminoisoquinolin-5-yl)amino)methyl)-1-(((1-methyl-2-oxo-1,2-dihydropyridin-4-yl)oxy)methyl)-2-azabicyclo[2.1.1]hexane-2-carboxylate] |
| 100 to 300 | CC(=O)N1CC2(CNc3cccc4c(N)nccc34)CC1(COc1ccn(C)c(=O)c1)C2 [Example 13003, 4-((2-acetyl-4-(((1-aminoisoquinolin-5-yl)amino)methyl)-2-azabicyclo[2.1.1]hexan-1-yl)methoxy)-1-methylpyridin-2(1H)-one] |
